The values that follow come from patent EP1980567A1, “New disaccharide-based tensides and emulsifiers” (Beiersdorf AG, priority 2005, dated 2006).

The structures appear in SMILES notation. Bounds are passed on as bounds.

The nature of data set [1]: Foaming capacity and foam stability of aqueous solutions in 100 mL measuring cylinders. Type of data set: physicochemical. Particulars: 50°C; immediate volume and 30 min. volume. As for the experimental part:
Messungen werden in 100 mL Meßzylindern durchgeführt. Vor Benutzung wird der Meßzylinder mit konzentrierter Nitriersäure gefüllt und 24 Stunden gelagert, danach mit bidestilliertem Wasser für weitere 24 Stunden. Lösungen werden durch Einwaage des Lipids und Zugabe von bidestilliertem Wasser bis zu einem Gesamtgewicht von 10 g (ca. 10 mL) hergestellt. Lösungen der jeweils niedrigeren Konzentration werden durch Verdünnung der ersten hergestellt. Vor der Messung wird der Meßzylinder bei der gewünschten Temperatur gelagert. Zur Schaumbildung wird der Meßzylinder 20 mal innerhalb von 30 Sekunden umgeschwenkt. Die Messung wird bis zu einer Abweichung von nicht mehr als 5 % wiederholt. Schaumvolumina werden direkt nach dem Schwenken des Zylinders (Schäumungsvermögen) und nach 30 Minuten (Schaumstabilität) bestimmt. '

The nature of data set [2]: Gel formation in water: phase transition temperature (Tgel) from gel to isotropic solution. As to conditions: for Übergangstemperatur: 0.1 Gew.%, gel up to this temperature, liquid above. The data set is classed as physicochemical. As for the experimental part:
Tabelle 1: Phasenumwandlungstemperaturen (Tgel) vom Gel zur isotropen Lösung für unterschiedliche Konzentrationen an Lipid (Abweichung ± 0.5 °C). Die Verbindung bildet ein stabiles Gel und oberhalb von Tgel eine klare Lösung. Tgel ist definiert als die Temperatur bei der das Gel sich beginnt aufzulösen. Die Temperaturspanne des Übergangs beträgt im Normalfall 2 bis 5 °C.

Data set [3] is described as follows: Gel formation in dimethyl sulfoxide (DMSO) / water mixtures. Further details: key: G=Gel; Gp = Teilweise geliert; I = Isotrope Lösung; S = Fest beim Abkühlen (bedingt durch gefrorenes Lösungsmittel). The data set is classed as physicochemical. Particulars: 0.1 Gew.%. The protocol:
Tabelle 2: Phasenumwandlungstemperaturen (Tgel) vom Gel zur isotropen Lösung für unterschiedliche Lösungsmittelzusammensetzung (Dimethylsulfoxid, DMSO und Wasser, H2O) bei gleichbleibender Lipidkonzentration (0.1 Gew.%) (Abweichung ± 0.5 °C). Die Verbindung formt klare Gele oder geliert nur teilweise, oberhalb der Übergangstemperatur bildet sie eine klare Lösung. Tgel ist definiert als die Temperatur bei der das Gel sich beginnt aufzulösen. Die Temperaturspanne des Übergangs beträgt im Normalfall 2 bis 5 °C.

Data set [4] can be described thus: Foam image and size distribution of the gas bubbles. The data set is classed as physicochemical. Particulars: 1 Gew.% in Wasser. The protocol:
Schaumbild und Größenverteilung der Gasbläschen nach 0 min. (Abb. 2 und 3) und nach 10 min. (Abb. 4 und 5) von Lac-EG-C12 in einer Gesamtkonzentration von 1 Gew.%. in Wasser. Man erkennt, daß der Schaum zu Beginn fast ausschließlich aus Bläschen mit einer Porengröße von unter 10000 µm^2 besteht. Nach 10 min. wird die Größenverteilung etwas flacher, wobei immer noch rund ein Viertel der Bläschen eine Größe von unter 10000 µm^2 aufweist.

Data set [5] can be described thus: Foam behaviour on hair / in the hand. Particulars: 1 Gew% in Wasser, with hair strands, rubbed in the hand; single component. An excerpt: Hier zeigte sich erstaunlicherweise das die erfindungsgemäßen Verbindungen eine vergleichbare Schaumbildung auf der Haut oder dem Haar wie z.B. Laurylethersulfat zeigen, jedoch in deutlich niedrigeren Einsatzkonzentrationen. Aus den Daten für Lac-EG-C12 (Tab. 10) war nicht unbedingt zu erwarten, dass es sich in Wasser beim Verreiben des Tensids in der Hand um einen guten Schaumbildner handelt. Auch in Gegenwart von Haaren wird beim Verreiben des Tensids eine Schaumbildung beobachtet. Dazu wurde 1 Gew% der erfindungsgemäßen Substanz in Wasser in Gegenwart von Haarsträhnen gelöst und in der Hand verrieben. Der Schaum ist wesentlich feinporiger als vergleichbare Schäume von Laurylethersulfat. […] Lac-Laureth-3.

The nature of data set [6]: Gel formation in water: phase transition temperature (Tgel) from gel to isotropic solution. Type of data set: physicochemical.

With `CCCCCCCCCCCCOCCO[C@@H]1O[C@H](CO[C@H]2O[C@H](CO)[C@H](O)[C@H](O)[C@H]2O)[C@@H](O)[C@H](O)[C@H]1O` [Mel-EG-C12, (2'-Dodecyloxyethyl) 6-O-(α-D-galactopyranosyl)-β-D-glucopyranosid], in data set [1], the “Schaumbildner (comparison with SLES)” value was “wesentlich bessere Schaumbildner als Natriumlauryethersulfat (SLES)”.
As to `CCCCCCCCCCCCOCCO[C@@H]1O[C@H](CO)[C@@H](O[C@@H]2O[C@H](CO)[C@H](O)[C@H](O)[C@H]2O)[C@H](O)[C@H]1O` [Lac-EG-C12, (2'-Dodecyloxyethyl) 4-O-(β-D-galactopyranosyl)-β-D-glucopyranosid], the Tgel stood at 10 °C in data set [2] (0.03 Gew.% (0.60 mM) in water); 21 °C in data set [2] (0.04 Gew.% (0.72 mM) in water); 30 °C in data set [2] (0.05 Gew.% (0.90 mM) in water); 35 °C in data set [2] (0.06 Gew.% (1.03 mM) in water); 38 °C in data set [2] (0.07 Gew.% (1.20 mM) in water); 40 °C in data set [2] (0.08 Gew.% (1.44 mM) in water). Also, the Tgel in data set [2] (0.1 Gew.% (1.80 mM) in water) amounted to 43 °C; in data set [2] (0.13 Gew.% (2.41 mM) in water), 45 °C; in data set [2] (0.2 Gew.% (3.61 mM) in water), 46 °C; in data set [2] (0.5 Gew.% (9.02 mM) in water), 48 °C; in data set [2] (1 Gew.% (18.04 mM) in water), 50 °C; in data set [2] (5 Gew.% (90.20 mM) in water), 51 °C. This compound also gave a Tgel in data set [2] (10 Gew.% (180.40 mM) in water) of 51 °C. This compound also showed a Übergangstemperatur in data set [2] of 43 °C. Besides, the Gelbildungsverhalten entry is on record as “I” in data set [3] (H2O /DMSO 1:9, 4 °C); “I” in data set [3] (H2O /DMSO 1:9, 20 °C); “S” in data set [3] (H2O /DMSO 1:9, -27 °C); “I” in data set [3] (H2O /DMSO 2:8, 4 °C); “I” in data set [3] (H2O /DMSO 2:8, 20 °C); “S” in data set [3] (H2O /DMSO 2:8, -27 °C). The Gelbildungsverhalten entry in data set [3] (H2O /DMSO 3:7, 4 °C) is listed as “Gp”; in data set [3] (H2O /DMSO 3:7, 20 °C), “I”; in data set [3] (H2O /DMSO 3:7, -27 °C), “S”; in data set [3] (H2O /DMSO 4:6, 4 °C), “G”; in data set [3] (H2O /DMSO 4:6, 20 °C), “G”; in data set [3] (H2O /DMSO 4:6, 39 °C), “Gp”. Further, the Gelbildungsverhalten result in data set [3] (H2O /DMSO 4:6, 50 °C) is “I”; in data set [3] (H2O /DMSO 4:6, -27 °C), “S”; in data set [3] (H2O /DMSO 5:5, 4 °C), “G”; in data set [3] (H2O /DMSO 5:5, 20 °C), “G”; in data set [3] (H2O /DMSO 5:5, 39 °C), “G”; in data set [3] (H2O /DMSO 5:5, 50 °C), “I”. Also, the Gelbildungsverhalten entry was “G” in data set [3] (H2O /DMSO 5:5, -27 °C); “G” in data set [3] (H2O /DMSO 6:4, 4 °C); “G” in data set [3] (H2O /DMSO 6:4, 20 °C); “G” in data set [3] (H2O /DMSO 6:4, 39 °C); “I” in data set [3] (H2O /DMSO 6:4, 50 °C); “S” in data set [3] (H2O /DMSO 6:4, -27 °C). For the same compound, the Gelbildungsverhalten result is given as “G” in data set [3] (H2O /DMSO 7:3, 4 °C); “G” in data set [3] (H2O /DMSO 7:3, 20 °C); “G” in data set [3] (H2O /DMSO 7:3, 39 °C); “I” in data set [3] (H2O /DMSO 7:3, 50 °C); “S” in data set [3] (H2O /DMSO 7:3, -27 °C); “G” in data set [3] (H2O /DMSO 8:2, 4 °C). For the same compound, the Gelbildungsverhalten entry in data set [3] (H2O /DMSO 8:2, 20 °C) is on record as “G”; in data set [3] (H2O /DMSO 8:2, 39 °C) it was “G”; in data set [3] (H2O /DMSO 8:2, 50 °C), “I”; in data set [3] (H2O /DMSO 8:2, -27 °C), “S”; in data set [3] (H2O /DMSO 9:1, 4 °C), “G”; in data set [3] (H2O /DMSO 9:1, 20 °C), “G”. Besides, the Gelbildungsverhalten result was “G” in data set [3] (H2O /DMSO 9:1, 39 °C); “I” in data set [3] (H2O /DMSO 9:1, 50 °C); “S” in data set [3] (H2O /DMSO 9:1, -27 °C). For the same compound, the “Schaumbildner (comparison with SLES)” value in data set [1] is “wesentlich bessere Schaumbildner als Natriumlauryethersulfat (SLES)”. Also, the “Porengröße der Bläschen” value in data set [4] (0 min., almost all bubbles) is reported as below 10000 µm^2. Further, in data set [4] (nach 10 min.), the “Anteil der Bläschen mit einer Größe von unter 10000 µm^2” value is “ein Viertel”. Moreover, the “Schaumbildung auf Haar / in der Hand” value in data set [5] was “bester Schaumbildner”. The values for the Gelbildung result in data set [6] (11 Gew.% Laurylethersulfat to 4 Gew.% of the β-anomer) and in data set [6] (mixture of 13 Gew% Laurylethersulfat with 2 Gew.% of the β-anomer) were “Gelbildung aber wieder einsetzt” and “kein Gel mehr bildet”, respectively. Besides, the “Anteil an α-Anomer, ab dem die Gelbildung durch das β-Anomer aufgehoben wird” value in data set [6] (mixture of α- and β-anomer) is listed as above 80 Gew.%.
`CCCCCCCCCCCCOCCO[C@H]1O[C@H](CO)[C@@H](O[C@@H]2O[C@H](CO)[C@H](O)[C@H](O)[C@H]2O)[C@H](O)[C@H]1O` [Lac-α-EG-C12, (2'-Dodecyloxyethyl) 4-O-(β-D-galactopyranosyl)-α-D-glucopyranosid]: in data set [2] (in water), the Gelbildung result is given as “kein Gel bildet”.
In the case of `CCCCCCCCCCCCOCCO[C@@H]1O[C@H](CO)[C@@H](O[C@H]2O[C@H](CO)[C@@H](O)[C@H](O)[C@H]2O)[C@H](O)[C@H]1O` [Mal-EG-C12, (2'-Dodecyloxyethyl) 4-O-(α-D-glucopyranosyl)-β-D-glucopyranosid], the “Schaumbildner (comparison with SLES)” value in data set [1] is recorded as “wesentlich bessere Schaumbildner als Natriumlauryethersulfat (SLES)”.
In turn, `CCCCCCCCCCCCOC(C)CO[C@@H]1O[C@H](CO)[C@@H](O[C@@H]2O[C@H](CO)[C@H](O)[C@H](O)[C@H]2O)[C@H](O)[C@H]1O` (stereo partly drawn) [Lac-PG-C12, (2'-Dodecyloxypropyl) 4-0-(β-D-galactopyranosyl)-β-D-glucopyranosid] displayed a Übergangstemperatur in data set [2] of 41 °C.
